Reference: patent publication US6638968B1, “Use of prodigiosin for treating diabetes mellitus” (Korea Research Institute of Bioscience and Biotechnology, priority 2000, dated 2003)

Columns and labels:
Type in all cases: in vivo, mouse
NOD mice [1] = test: Side effects of prodigiosin in NOD mice (body weight, mortality, pathological test of liver, kidney, lung)
Procedure: Because of diabetes, NOD mice have their weight decrease and come to die in 2 weeks after symptoms of diabetes.
FIG. 7 illustrates that the prodigiosin has no side effect.
In NOD mice receiving prodigiosin from 8 weeks to 24 weeks age, the negative effects of the prodigiosin were examined (FIG. 7). […] After their liver, kidney, and lung had been extracted from the prodigiosin-injected NOD mice, a pathological test was performed using the hematoxylinleosin staining.

NOD mice [2] = test: Blood glucose of NOD mice (plasma, blood biochemical analyzer); conditions: prodigiosin-injected NOD mice, 10 mg/kg intraperitoneally
Procedure: FIG. 3 illustrates decrease of the blood glucose by administration of prodigiosin. After we isolated plasma from NOD mouse, the blood glucose was measured with the blood biochemical analyzer (Cibacorning, USA).
Prodigiosin was intraperitoneally injected in 10 mg/kg from 8 weeks to 24 weeks of age, and the urine glucose was measured with uropaper (Eiken Chemical Co. Ltd., Japan) every week. In control group of NOD mice, not receiving prodigiosin, the urine glucose was first detected from 15 weeks of age, and at 24 weeks, 80% of the mice had the urine glucose detected (FIG. 2). […] Average blood glucose of non-prodigiosin-injected NOD mice was 500 mg/dl, which means diabetes mellitus crisis, and that of prodigiosin-injected NOD mice was 100 mg/dl, which means the normal condition (FIG. 3).

NOD mice [3] = test: Insulitis: lymphocyte infiltration into pancreatic ducts, hematoxylin/eosin staining; conditions: prodigiosin-injected NOD mice
Procedure: In insulin-dependent diabetes mellitus, insulitis may be induced by lymphocyte infiltration into pancreatic ducts and destruction of beta cells thereby. Macrophages and T cells are the major infiltrating lymphocytes, and these immune cells destroy beta cells. The pancreas from both the prodigiosin-injected and the non-injected NOD mice were preserved in formalin and to preparation. After the hematoxylin/eosin staining, the lymphocyte infiltration level was measured. 1, 2, and 3 point were respectively given to 25, 50, and 75% of insulitis progression, and the average value of insulitis progression was calculated (FIG. 4). The NOD mice, not receiving prodigiosin, had more than 2 point, or over 50% of infiltration, while the infiltration level of the prodigiosin-injected mice was about 1 point, or under 20% of infiltration.

For `CCCCCC1=C/C(=C/c2[nH]c(-c3ccc[nH]3)cc2OC)N=C1C` [prodigiosin], the mortality (NOD mice [1]; NOD mice receiving prodigiosin) was “any mice were not found dead”, the “toxicity to kidney, liver and lung” value (NOD mice [1]; NOD mice receiving prodigiosin) was “no toxicity to kidney, liver and lung” and the body weight (NOD mice [1]; NOD mice receiving prodigiosin from 8 to 24 weeks of age) was “didn't decrease”. For the same compound, the “toxicity to kidney (glomerulus and nephric tubule, pathological test)” value (NOD mice [1]; NOD mice receiving prodigiosin from 8 to 24 weeks of age, hematoxylin/eosin staining) was “no toxicity to kidney”, the average blood glucose (NOD mice [2]) was 100 mg/dL and the lymphocyte infiltration (NOD mice [3]; pancreas, hematoxylin/eosin staining) was “under 20%”. The “infiltration level (average insulitis progression score)” value (NOD mice [3]; 1, 2, 3 point = 25, 50, 75% insulitis progression) was “about 1 point”.
